Strand notation (5' to 3'): a small letter for the sugar, then the base; units joined by * are phosphorothioate-linked, units joined directly phosphodiester-linked; [ ] holds rarer units or linkages, { } end groups; capitals alone tell only the bases. e = 2'-O-(2-methoxyethyl) (MOE); [5mC] = 5-methylcytosine; d = 2'-deoxy (DNA)

The subject of one data set is mouse RANKL mRNA. Description: Antisense inhibition of mouse RANKL mRNA levels in C2C12 cells, quantitative real-time PCR (Table 2). Format: cell-based. The arrangement: concentration or dose not given beside the values. As to conditions: averages from three experiments. On the procedure:
Cells were seeded into 24-well plates (Falcon-353047 at a density of ˜10,000 cells/cm^2 for use in antisense oligonucleotide transfection.
Cells are treated and data are obtained in triplicate. […] Cells were harvested 16-24 hours after oligonucleotide treatment.
PCR reagents were obtained from Invitrogen Corporation, (Carlsbad, Calif.).
Probes and primers to mouse RANKL were designed to hybridize to a mouse RANKL sequence, using published sequence information (GenBank accession number AF013170.1, incorporated herein as SEQ ID NO:ll). For mouse RANKL the PCR primers were: • forward primer: […] (SEQ ID NO:12) • reverse primer: […] (SEQ ID NO: 13) and • the PCR probe was: FAM-[…]-TAMRA (SEQ ID NO: 14) where FAM is the fluorescent reporter dye and TAMRA is the quencher dye. For mouse GAPDH the PCR primers were: • forward primer: […](SEQ ID NO:15) • reverse primer: […](SEQ ID NO:16) and the • PCR probe was: 5′ JOE-[…]-TAMRA 3′ (SEQ ID NO: 17) where JOE is the fluorescent reporter dye and TAMRA is the quencher dye.
In accordance with the present invention, a second series of antisense compounds was designed to target different regions of the mouse RANKL RNA, using published sequences (GenBank accession number AF013170.1, incorporated herein as SEQ ID NO: 11). […] All cytidine residues are 5-methylcytidines. […] If present “N.D.” indicates “no data”.
In general terms: In qPCR the cycle at which signal appears reflects the starting amount.
On to “ggattttgatgctggtttta (antisense eG*eG*eA*eT*eT*dT*dT*dG*dA*dT*dG*d[5mC]*dT*dG*dG*eT*eT*eT*eT*eA) [ISIS 180809, 2′-MOE gapmer targeted to mouse and rat RANKL]”, for which the “% INHIB (inhibition of mouse RANKL mRNA levels)” value is “at least 40%”.
Consider “180807 (antisense eA*eG*e[5mC]*eA*eA*dA*dT*dG*dT*dT*dG*dG*d[5mC]*dG*dT*eA*e[5mC]*eA*eG*eG) [compound 180807]”, for which the “% INHIB (inhibition of mouse RANKL mRNA levels)” value was 74%.
Still for that read-out and setting: to “180798 (antisense e[5mC]*e[5mC]*eT*eT*e[5mC]*dG*dT*dG*dT*dG*dG*dG*dA*d[5mC]*dG*e[5mC]*e[5mC]*eG*eG*eG) [compound 180798]” belongs 34%; to “tcagtggcacatgtccaggg (antisense eT*e[5mC]*eA*eG*eT*dG*dG*d[5mC]*dA*d[5mC]*dA*dT*dG*dT*d[5mC]*e[5mC]*eA*eG*eG*eG) [ISIS 180818, 2′-MOE gapmer targeted to mouse RANKL]”, “at least 40%”.
As to “180823 (antisense eT*eA*eA*eA*eT*dA*dT*dT*dT*dT*dG*dA*dA*dT*d[5mC]*eA*eA*eA*eT*eA) [compound 180823]”, the “% INHIB (inhibition of mouse RANKL mRNA levels)” value turned out to be 9%.
Consider “180797 (antisense eT*e[5mC]*eT*e[5mC]*eG*dG*d[5mC]*dT*dG*dG*d[5mC]*d[5mC]*d[5mC]*dG*dG*e[5mC]*eG*e[5mC]*eA*eT) [compound 180797]”, for which the “% INHIB (inhibition of mouse RANKL mRNA levels)” value came out at 60%.
Regarding “180794 (antisense e[5mC]*e[5mC]*eG*eG*e[5mC]*dG*d[5mC]*dA*dT*dG*dG*d[5mC]*dG*d[5mC]*dG*eG*e[5mC]*eG*e[5mC]*e[5mC]) [compound 180794]”, the “% INHIB (inhibition of mouse RANKL mRNA levels)” value came out at 0%.
For the substance “180833 (antisense e[5mC]*eA*eG*eA*eG*dA*d[5mC]*dA*dA*dT*dG*d[5mC]*dT*dT*dT*eT*eA*eT*eT*eG) [compound 180833]”, the “% INHIB (inhibition of mouse RANKL mRNA levels)” value stood at 22%.
“180813 (antisense eA*eT*eG*eT*eT*d[5mC]*d[5mC]*dA*d[5mC]*dG*dA*dA*dA*dT*dG*eA*eG*eT*e[5mC]*eT) [compound 180813]”: the “% INHIB (inhibition of mouse RANKL mRNA levels)” value is 48%.
For the substance “atgttccacgaaatgagtct (antisense eA*eT*eG*eT*eT*d[5mC]*d[5mC]*dA*d[5mC]*dG*dA*dA*dA*dT*dG*eA*eG*eT*e[5mC]*eT) [ISIS 180813, 2′-MOE gapmer targeted to mouse RANKL]”, the “% INHIB (inhibition of mouse RANKL mRNA levels)” value is given as “at least 40%”.
For the substance “180810 (antisense eT*e[5mC]*eA*eG*eA*dA*dT*dT*dG*d[5mC]*d[5mC]*d[5mC]*dG*dA*d[5mC]*e[5mC]*eA*eG*eT*eT) [compound 180810]”, the “% INHIB (inhibition of mouse RANKL mRNA levels)” value was 83%.
As to “cttatttgcaggtcccagcg (antisense e[5mC]*eT*eT*eA*eT*dT*dT*dG*d[5mC]*dA*dG*dG*dT*d[5mC]*d[5mC]*e[5mC]*eA*eG*e[5mC]*eG) [ISIS 180820, 2′-MOE gapmer targeted to mouse RANKL]”, the “% INHIB (inhibition of mouse RANKL mRNA levels)” value is “at least 40%”.
For “180809 (antisense eG*eG*eA*eT*eT*dT*dT*dG*dA*dT*dG*d[5mC]*dT*dG*dG*eT*eT*eT*eT*eA) [compound 180809]”, the “% INHIB (inhibition of mouse RANKL mRNA levels)” value is recorded as 53%.
For “180816 (antisense eA*e[5mC]*e[5mC]*eG*eT*dT*dG*dT*dG*dT*dA*dA*dT*d[5mC]*dA*e[5mC]*e[5mC]*eA*eT*eG) [compound 180816]”, the “% INHIB (inhibition of mouse RANKL mRNA levels)” value is reported as 35%.
On to “agctacgagtaccttcaggg (antisense eA*eG*e[5mC]*eT*eA*d[5mC]*dG*dA*dG*dT*dA*d[5mC]*d[5mC]*dT*dT*e[5mC]*eA*eG*eG*eG) [ISIS 180827, 2′-MOE gapmer targeted to mouse RANKL]”, for which the “% INHIB (inhibition of mouse RANKL mRNA levels)” value is on record as “at least 40%”.
On the same count and under the same terms, to “tctcggctggcccggcgcat (antisense eT*e[5mC]*eT*e[5mC]*eG*dG*d[5mC]*dT*dG*dG*d[5mC]*d[5mC]*d[5mC]*dG*dG*e[5mC]*eG*e[5mC]*eA*eT) [ISIS 180797, 2′-MOE gapmer targeted to mouse RANKL]” belongs “at least 40%”; to “180817 (antisense eG*e[5mC]*eA*eT*e[5mC]*dG*dG*dA*dA*dT*dA*d[5mC]*d[5mC]*dT*d[5mC]*eT*e[5mC]*e[5mC]*e[5mC]*eA) [compound 180817]”, 51%; to “180811 (antisense eA*eT*eG*e[5mC]*eT*dA*dA*dT*dT*dT*d[5mC]*dT*dT*d[5mC]*dA*e[5mC]*e[5mC]*eA*eG*e[5mC]) [compound 180811]”, 67%.
For “tcggctggcccggcgcatgg (antisense eT*e[5mC]*eG*eG*e[5mC]*dT*dG*dG*d[5mC]*d[5mC]*d[5mC]*dG*dG*d[5mC]*dG*e[5mC]*eA*eT*eG*eG) [ISIS 180796, 2′-MOE gapmer targeted to mouse RANKL]”, the “% INHIB (inhibition of mouse RANKL mRNA levels)” value is given as “at least 40%”.
Turning to “180793 (antisense eG*e[5mC]*e[5mC]*e[5mC]*eT*dG*d[5mC]*dT*d[5mC]*d[5mC]*dG*d[5mC]*dG*dA*dT*e[5mC]*eG*eT*eT*e[5mC]) [compound 180793]”, the “% INHIB (inhibition of mouse RANKL mRNA levels)” value is given as 74%.
“180815 (antisense eT*e[5mC]*eA*eT*eA*d[5mC]*dA*d[5mC]*d[5mC]*dG*dT*dG*dG*dG*d[5mC]*e[5mC]*eA*eT*eG*eT) [compound 180815]”: the “% INHIB (inhibition of mouse RANKL mRNA levels)” value is listed as 30%.
On to “180795 (antisense eG*e[5mC]*eT*eG*eG*d[5mC]*d[5mC]*d[5mC]*dG*dG*d[5mC]*dG*d[5mC]*dA*dT*eG*eG*e[5mC]*eG*e[5mC]) [compound 180795]”, for which the “% INHIB (inhibition of mouse RANKL mRNA levels)” value is listed as 62%.
For “180790 (antisense eA*eG*e[5mC]*eA*eG*dA*d[5mC]*dT*d[5mC]*d[5mC]*dG*d[5mC]*d[5mC]*dA*d[5mC]*eG*eG*e[5mC]*e[5mC]*e[5mC]) [compound 180790]”, the “% INHIB (inhibition of mouse RANKL mRNA levels)” value is reported as 59%.
As for “gcatcggaatacctctccca (antisense eG*e[5mC]*eA*eT*e[5mC]*dG*dG*dA*dA*dT*dA*d[5mC]*d[5mC]*dT*d[5mC]*eT*e[5mC]*e[5mC]*e[5mC]*eA) [ISIS 180817, 2′-MOE gapmer targeted to mouse RANKL]”, the “% INHIB (inhibition of mouse RANKL mRNA levels)” value is “at least 40%”.
With “180822 (antisense eA*eA*eT*e[5mC]*eA*dA*dA*dT*dA*d[5mC]*dT*dA*dT*dA*dG*e[5mC]*eA*e[5mC]*eA*eA) [compound 180822]”, the “% INHIB (inhibition of mouse RANKL mRNA levels)” value was found to be 24%.
Consider “180789 (antisense eG*e[5mC]*eA*eG*eA*d[5mC]*dT*d[5mC]*d[5mC]*dG*d[5mC]*d[5mC]*dA*d[5mC]*dG*eG*e[5mC]*e[5mC]*e[5mC]*e[5mC]) [compound 180789]”, for which the “% INHIB (inhibition of mouse RANKL mRNA levels)” value is 34%.
For “ggcttgcctcgctgggccac (antisense eG*eG*e[5mC]*eT*eT*dG*d[5mC]*d[5mC]*dT*d[5mC]*dG*d[5mC]*dT*dG*dG*eG*e[5mC]*e[5mC]*eA*e[5mC]) [ISIS 180805, 2′-MOE gapmer targeted to mouse RANKL]”, the “% INHIB (inhibition of mouse RANKL mRNA levels)” value is “at least 40%”.
Take “acatggagcgggaggcggcg (antisense eA*e[5mC]*eA*eT*eG*dG*dA*dG*d[5mC]*dG*dG*dG*dA*dG*dG*e[5mC]*eG*eG*e[5mC]*eG) [ISIS 180800, 2′-MOE gapmer targeted to mouse RANKL]”: the “% INHIB (inhibition of mouse RANKL mRNA levels)” value is on record as “at least 40%”.
Take “agcagactccgccacggccc (antisense eA*eG*e[5mC]*eA*eG*dA*d[5mC]*dT*d[5mC]*d[5mC]*dG*d[5mC]*d[5mC]*dA*d[5mC]*eG*eG*e[5mC]*e[5mC]*e[5mC]) [ISIS 180790, 2′-MOE gapmer targeted to mouse RANKL]”: the “% INHIB (inhibition of mouse RANKL mRNA levels)” value was “at least 40%”.
The same measure, in the same setting: to “180808 (antisense eA*eG*e[5mC]*eT*eG*dA*dA*dG*dA*dT*dA*dG*dT*d[5mC]*dT*eG*eT*eA*eG*eG) [compound 180808]” belongs 74%.
With “180830 (antisense eT*eG*eA*eA*eA*dG*dG*d[5mC]*dA*d[5mC]*d[5mC]*dT*dG*dG*dT*eG*eA*e[5mC]*e[5mC]*eA) [compound 180830]”, the “% INHIB (inhibition of mouse RANKL mRNA levels)” value was 5%.
Consider “180826 (antisense eT*eA*e[5mC]*eA*eA*dA*dG*dT*dG*d[5mC]*dA*d[5mC]*d[5mC]*dA*dG*eT*eT*eA*eA*eA) [compound 180826]”, for which the “% INHIB (inhibition of mouse RANKL mRNA levels)” value came out at 33%.
Same read-out and setting: with “180827 (antisense eA*eG*e[5mC]*eT*eA*d[5mC]*dG*dA*dG*dT*dA*d[5mC]*d[5mC]*dT*dT*e[5mC]*eA*eG*eG*eG) [compound 180827]” the figure was 54%.

In the next data set the test system is rat RANKL mRNA. Description: Antisense inhibition of rat RANKL mRNA levels in UMR-106 cells, quantitative real-time PCR (Table 3). Format: cell-based. The arrangement: concentration or dose not given beside the values. As to conditions: averages from three experiments. In a few lines: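 UMR-106 cells transfected with antisense oligonucleotides (5-methylcytidine throughout) in triplicate, harvested 16-24 h after treatment. RANKL mRNA quantified by real-time RT-PCR with a FAM/TAMRA probe, using rat GAPDH (JOE/TAMRA probe) as the reference.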
On to “ggattttgatgctggtttta (antisense eG*eG*eA*eT*eT*dT*dT*dG*dA*dT*dG*d[5mC]*dT*dG*dG*eT*eT*eT*eT*eA) [ISIS 180809, 2′-MOE gapmer targeted to mouse and rat RANKL]”, for which the “% INHIB (inhibition of rat RANKL mRNA levels)” value is recorded as “at least 40%”.
“180807 (antisense eA*eG*e[5mC]*eA*eA*dA*dT*dG*dT*dT*dG*dG*d[5mC]*dG*dT*eA*e[5mC]*eA*eG*eG) [compound 180807]”: the “% INHIB (inhibition of rat RANKL mRNA levels)” value is listed as 48%.
As for “180809 (antisense eG*eG*eA*eT*eT*dT*dT*dG*dA*dT*dG*d[5mC]*dT*dG*dG*eT*eT*eT*eT*eA) [compound 180809]”, the “% INHIB (inhibition of rat RANKL mRNA levels)” value came out at 57%.
